Earlier results on one compound are cited in patent US7906154B2, “Compositions and methods for the induction and maintenance of quality sleep” (priority 2006, dated 2011).

Where two headings read alike, the source gives them in different places.

`COC1=C(OC)C(=O)C(C/C=C(\C)CC/C=C(\C)CC/C=C(\C)CC/C=C(\C)CC/C=C(\C)CC/C=C(\C)CC/C=C(\C)CC/C=C(\C)CC/C=C(\C)CCC=C(C)C)=C(C)C1=O` [CoQ10, Coenzyme Q10]: the “subjects with a decrease in the sound level of their snoring” value (“subjects with a decrease” for short) (during non-REM sleep stages I/II) is listed as “about 40%”, the “subjects with a decrease” value (during non-REM sleep stages III/IV) is “about 33%” and the “subjects with a decrease” value (during the REM stage of sleep) is given as “about 44%”.
